Some test systems named below: HOP-62 NSCLC; ACHN renal; MDA-MB-435; A498 renal; SF-268 CNS; NCI-H460 lung; SK-MEL-28 melanoma; T-47D breast; NCI-H226 lung; K-562 leukemia.
Assay in all cases: NCI anticancer screen, dose series, 48 h

Structures are written as SMILES.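 Assay format: 96-well plates, 48-hour exposure. GI50 marks 50% less growth. TGI marks complete inhibition of growth.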

As to `OCc1ccc(N(CCN2CCCC2)Cc2ccc(F)cc2)cc1Cl`, the GI50 was 17.9 µM in the assay with HOP-62 NSCLC; 21.8 µM in the assay on ACHN renal; 15.9 µM with MDA-MB-435; 1.97 µM with A498 renal; 21 µM with SF-268 CNS; 3.47 µM in the assay with NCI-H460 lung. Moreover, the GI50 was 15.9 µM with SK-MEL-28 melanoma, 19 µM in the assay on T-47D breast, 1.39 µM in the assay on NCI-H226 lung and 16.2 µM in the assay on K-562 leukemia. For the same compound, the TGI came out at 42.1 µM with HOP-62 NSCLC; 72.3 µM in the assay on ACHN renal; 32.8 µM in the assay with MDA-MB-435; 11.9 µM in the assay with A498 renal; 69 µM with SF-268 CNS; 13.9 µM in the assay on NCI-H460 lung. For the same compound, the TGI in the assay with SK-MEL-28 melanoma worked out at 30.2 µM; in the assay with T-47D breast, 49.2 µM; with NCI-H226 lung, 3.85 µM; in the assay with K-562 leukemia it was 40.4 µM.
Consider `CCCN(CCSSCCNc1nc(N(C)O)nc(N(C)O)n1)c1nc(N(C)O)nc(N(C)O)n1`, for which the GI50 is 4.49 µM in the assay on HOP-62 NSCLC; 3.92 µM with ACHN renal; 4.91 µM with MDA-MB-435; 19.5 µM in the assay on A498 renal; 6.37 µM in the assay with SF-268 CNS; 3.87 µM in the assay with NCI-H460 lung. For the same compound, the GI50 was 6.99 µM with SK-MEL-28 melanoma, 7.14 µM with T-47D breast, 7.76 µM in the assay on NCI-H226 lung and 15.7 µM with K-562 leukemia. Moreover, the TGI in the assay with HOP-62 NSCLC, in the assay with ACHN renal, in the assay on MDA-MB-435, with A498 renal, in the assay with SF-268 CNS and with NCI-H460 lung was over 100 µM throughout. Besides, the TGI in the assay with SK-MEL-28 melanoma, with T-47D breast, in the assay on NCI-H226 lung and in the assay with K-562 leukemia was over 100 µM in each case.
For `COc1cc(/C=C2\C(=O)Nc3cccc(Cl)c32)cc(OC)c1OC`, the GI50 is 32.6 µM in the assay with HOP-62 NSCLC; 53.2 µM in the assay with ACHN renal; over 100 µM in the assay on MDA-MB-435; over 100 µM in the assay with A498 renal; over 100 µM with SF-268 CNS; over 100 µM in the assay on NCI-H460 lung. The GI50 with SK-MEL-28 melanoma is over 100 µM; with T-47D breast, over 100 µM; with NCI-H226 lung, over 100 µM; with K-562 leukemia, 29.2 µM. Further, the TGI in the assay with HOP-62 NSCLC, with ACHN renal, in the assay with MDA-MB-435, with A498 renal, with SF-268 CNS and with NCI-H460 lung was over 100 µM throughout. Moreover, the TGI in the assay with SK-MEL-28 melanoma, in the assay on T-47D breast, with NCI-H226 lung and in the assay with K-562 leukemia was over 100 µM in each case.
Consider `CNCCCNCCCN1C(=O)c2ccc3c4c(ccc(c24)C1=O)C(=O)N(CCCNCc1ccccc1OC)C3=O`, for which the GI50 was 1.24 µM with HOP-62 NSCLC; 0.5 µM in the assay on ACHN renal; 1.07 µM with MDA-MB-435; 1.54 µM with A498 renal; 1.03 µM in the assay with SF-268 CNS; 0.429 µM in the assay on NCI-H460 lung. The GI50 in the assay with SK-MEL-28 melanoma was 1.01 µM; in the assay with T-47D breast, 1.25 µM; in the assay with NCI-H226 lung, 1.42 µM; in the assay on K-562 leukemia, 0.408 µM. Also, the TGI is 4.44 µM in the assay on HOP-62 NSCLC; 3.96 µM in the assay on ACHN renal; 2.91 µM with MDA-MB-435; 8.91 µM in the assay on A498 renal; 9.02 µM in the assay on SF-268 CNS; 2.86 µM with NCI-H460 lung. The TGI with SK-MEL-28 melanoma amounted to 2.79 µM; in the assay with T-47D breast, 4.1 µM; with NCI-H226 lung it was 4.63 µM; with K-562 leukemia it was 2.9 µM.
Take `C=C1C(=O)O[C@H]2[C@H]1CC/C(Cn1cc(-c3cc(C)c(C)cc3C)nn1)=C\CC[C@@]1(C)O[C@@H]21`: the GI50 in the assay with HOP-62 NSCLC was 1.77 µM; in the assay on ACHN renal, 1.07 µM; in the assay on MDA-MB-435, 1.41 µM; in the assay with A498 renal, 1.04 µM; in the assay on SF-268 CNS it was 1.52 µM; in the assay on NCI-H460 lung, 3.16 µM. The GI50 in the assay with SK-MEL-28 melanoma was 1.4 µM; in the assay on T-47D breast, 0.539 µM; in the assay with NCI-H226 lung it was 1.46 µM; with K-562 leukemia, 1.39 µM. Moreover, the TGI in the assay with HOP-62 NSCLC turned out to be 3.97 µM; in the assay on ACHN renal it was 2.34 µM; in the assay on MDA-MB-435, 3.76 µM; in the assay on A498 renal, 4 µM; in the assay with SF-268 CNS, 3.06 µM; in the assay with NCI-H460 lung, 10.8 µM. Moreover, the TGI with SK-MEL-28 melanoma stood at 2.89 µM; in the assay with T-47D breast, 2.45 µM; in the assay with NCI-H226 lung, 3.07 µM; in the assay with K-562 leukemia it was 6.24 µM.
On to `O=[N+]([O-])c1ccc2nc3ccccc3cc2c1`, for which the TGI with HOP-62 NSCLC was 6.16 µM; in the assay on ACHN renal, 14.9 µM; in the assay on MDA-MB-435, 3.76 µM; in the assay with A498 renal it was 3.27 µM; with SF-268 CNS it was 83.4 µM; with NCI-H460 lung it was over 100 µM. Also, the TGI in the assay on SK-MEL-28 melanoma is 10.7 µM; in the assay with T-47D breast, 15.4 µM; in the assay on NCI-H226 lung it was 8.97 µM; with K-562 leukemia it was 8.79 µM.
`COc1ccc(N(C)c2c3ccccc3nc3[nH]c4ccccc4c23)cc1`: the GI50 is 0.407 µM in the assay with HOP-62 NSCLC; 0.558 µM in the assay on ACHN renal; 1.12 µM in the assay with MDA-MB-435; 0.939 µM with A498 renal; 0.373 µM with SF-268 CNS; 0.151 µM in the assay with NCI-H460 lung. The GI50 was 3.86 µM in the assay on SK-MEL-28 melanoma, 0.986 µM in the assay with T-47D breast, 0.9 µM with NCI-H226 lung and 0.558 µM in the assay on K-562 leukemia. Moreover, the TGI worked out at 1.79 µM with HOP-62 NSCLC; 2.16 µM with ACHN renal; 3.22 µM with MDA-MB-435; 2.61 µM with A498 renal; 2.27 µM in the assay with SF-268 CNS; 7.12 µM with NCI-H460 lung. For the same compound, the TGI with SK-MEL-28 melanoma was determined as 21.8 µM; in the assay with T-47D breast, 2.61 µM; in the assay on NCI-H226 lung it was 3.99 µM; in the assay with K-562 leukemia, 16.3 µM.
For `CC1(C)CC2(C)CC1CC2NC(=O)CCN1CCOCC1` (stereo not given), the TGI with HOP-62 NSCLC, in the assay on ACHN renal, with MDA-MB-435, with A498 renal, in the assay with SF-268 CNS and in the assay with NCI-H460 lung was over 100 µM throughout. The TGI with SK-MEL-28 melanoma, in the assay on T-47D breast, in the assay with NCI-H226 lung and in the assay on K-562 leukemia was over 100 µM in each case.
Turning to `COc1ccccc1-c1cc(=O)c2ccc(OC)c(OC)c2o1`, the TGI with HOP-62 NSCLC, with ACHN renal, in the assay with MDA-MB-435, with A498 renal, in the assay with SF-268 CNS and in the assay with NCI-H460 lung was over 100 µM each time. The TGI with SK-MEL-28 melanoma is over 100 µM; in the assay on T-47D breast, 75.5 µM; in the assay on NCI-H226 lung, over 100 µM; with K-562 leukemia it was over 100 µM.

Source of the values: PubChem BioAssay (NCI).
